{"source": "PubChem BioAssay (NCI)", "note": "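Five compound concentrations were applied to cells in 96-well plates for 48 hours; endpoints were derived by simple linear interpolation of the resulting dose-response curve. TGI denotes the concentration required for complete inhibition of growth.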"}
{"tested_on": "HOP-62 NSCLC", "assay": "inhibition of tumour cell growth, NCI panel, 48 h", "units": {"TGI": "µM"}}
{"smiles": "COc1cccc(CCn2c(N)c(-c3ccccc3)c3ccc([N+](=O)[O-])cc3c2=O)c1", "TGI": 24.4}
{"smiles": "CC1(C)c2ccccc2C(=O)C12CCC(=O)CC2", "TGI": "> 100"}
{"tested_on": "HOP-92 NSCLC", "assay": "inhibition of tumour cell growth, NCI panel, 48 h", "units": {"TGI": "µM"}}
{"smiles": "COc1ccc2c(c1)CCc1c-2[nH]c2ccc(OC)cc12", "TGI": "> 100"}
{"smiles": "C/C(=N\\Nc1cc(CN2CCCC2)c(-c2ccc(Cl)cc2)nn1)C(=O)O", "TGI": "> 100"}
{"smiles": "Cc1cccc(/C=N/NC(=S)NCCc2ccccn2)n1", "TGI": "> 100"}
{"smiles": "CC(=O)c1csc2c1C(=O)c1scc(C(C)=O)c1C2=O", "TGI": 3.92}
{"smiles": "COc1cccc(CCn2c(N)c(-c3ccccc3)c3ccc([N+](=O)[O-])cc3c2=O)c1", "TGI": 31.2}
{"tested_on": "HS 578T breast", "assay": "inhibition of tumour cell growth, NCI panel, 48 h", "units": {"TGI": "µM"}}
{"smiles": "COc1ccc2c(c1)CCc1c-2[nH]c2ccc(OC)cc12", "TGI": "> 100"}
{"smiles": "C/C(=N\\Nc1cc(CN2CCCC2)c(-c2ccc(Cl)cc2)nn1)C(=O)O", "TGI": "> 100"}
{"smiles": "O=C(O)c1ccc(NNc2cc(=O)[nH]c(=O)[nH]2)cc1", "TGI": "> 100"}
{"smiles": "Cc1cccc(/C=N/NC(=S)NCCc2ccccn2)n1", "TGI": "> 100"}
{"smiles": "CC(=O)c1csc2c1C(=O)c1scc(C(C)=O)c1C2=O", "TGI": 6.48}
{"smiles": "COc1cccc(CCn2c(N)c(-c3ccccc3)c3ccc([N+](=O)[O-])cc3c2=O)c1", "TGI": 5.25}
{"smiles": "CC1(C)c2ccccc2C(=O)C12CCC(=O)CC2", "TGI": "> 100"}
{"tested_on": "HT29 colon", "assay": "inhibition of tumour cell growth, NCI panel, 48 h", "units": {"TGI": "µM"}}
{"smiles": "COc1ccc2c(c1)CCc1c-2[nH]c2ccc(OC)cc12", "TGI": "> 100"}
{"smiles": "C/C(=N\\Nc1cc(CN2CCCC2)c(-c2ccc(Cl)cc2)nn1)C(=O)O", "TGI": "> 100"}
{"smiles": "O=C(O)c1ccc(NNc2cc(=O)[nH]c(=O)[nH]2)cc1", "TGI": "> 100"}
{"smiles": "Cc1cccc(/C=N/NC(=S)NCCc2ccccn2)n1", "TGI": "> 100"}
{"smiles": "CC(=O)c1csc2c1C(=O)c1scc(C(C)=O)c1C2=O", "TGI": 4.61}
{"smiles": "COc1cccc(CCn2c(N)c(-c3ccccc3)c3ccc([N+](=O)[O-])cc3c2=O)c1", "TGI": 27.4}
{"smiles": "CC1(C)c2ccccc2C(=O)C12CCC(=O)CC2", "TGI": "> 100"}
{"tested_on": "IGROV1 ovarian", "assay": "inhibition of tumour cell growth, NCI panel, 48 h", "units": {"TGI": "µM"}}
{"smiles": "COc1ccc2c(c1)CCc1c-2[nH]c2ccc(OC)cc12", "TGI": "> 100"}
{"smiles": "C/C(=N\\Nc1cc(CN2CCCC2)c(-c2ccc(Cl)cc2)nn1)C(=O)O", "TGI": "> 100"}
{"smiles": "O=C(O)c1ccc(NNc2cc(=O)[nH]c(=O)[nH]2)cc1", "TGI": "> 100"}
{"smiles": "Cc1cccc(/C=N/NC(=S)NCCc2ccccn2)n1", "TGI": "> 100"}
{"smiles": "CC(=O)c1csc2c1C(=O)c1scc(C(C)=O)c1C2=O", "TGI": 3.08}
{"smiles": "COc1cccc(CCn2c(N)c(-c3ccccc3)c3ccc([N+](=O)[O-])cc3c2=O)c1", "TGI": 23.4}
{"smiles": "CC1(C)c2ccccc2C(=O)C12CCC(=O)CC2", "TGI": "> 100"}
{"tested_on": "K-562 leukemia", "assay": "inhibition of tumour cell growth, NCI panel, 48 h", "units": {"TGI": "µM"}}
{"smiles": "COc1ccc2c(c1)CCc1c-2[nH]c2ccc(OC)cc12", "TGI": "> 100"}
{"smiles": "C/C(=N\\Nc1cc(CN2CCCC2)c(-c2ccc(Cl)cc2)nn1)C(=O)O", "TGI": "> 100"}
{"smiles": "O=C(O)c1ccc(NNc2cc(=O)[nH]c(=O)[nH]2)cc1", "TGI": "> 100"}
{"smiles": "Cc1cccc(/C=N/NC(=S)NCCc2ccccn2)n1", "TGI": "> 100"}
{"smiles": "CC(=O)c1csc2c1C(=O)c1scc(C(C)=O)c1C2=O", "TGI": 4.35}
{"smiles": "COc1cccc(CCn2c(N)c(-c3ccccc3)c3ccc([N+](=O)[O-])cc3c2=O)c1", "TGI": 21}
{"smiles": "CC1(C)c2ccccc2C(=O)C12CCC(=O)CC2", "TGI": "> 100"}
{"tested_on": "KM12 colon", "assay": "inhibition of tumour cell growth, NCI panel, 48 h", "units": {"TGI": "µM"}}
{"smiles": "COc1ccc2c(c1)CCc1c-2[nH]c2ccc(OC)cc12", "TGI": "> 100"}
{"smiles": "C/C(=N\\Nc1cc(CN2CCCC2)c(-c2ccc(Cl)cc2)nn1)C(=O)O", "TGI": "> 100"}
{"smiles": "O=C(O)c1ccc(NNc2cc(=O)[nH]c(=O)[nH]2)cc1", "TGI": "> 100"}
{"smiles": "Cc1cccc(/C=N/NC(=S)NCCc2ccccn2)n1", "TGI": "> 100"}
{"smiles": "CC(=O)c1csc2c1C(=O)c1scc(C(C)=O)c1C2=O", "TGI": 3.53}
{"smiles": "COc1cccc(CCn2c(N)c(-c3ccccc3)c3ccc([N+](=O)[O-])cc3c2=O)c1", "TGI": 16}
{"smiles": "CC1(C)c2ccccc2C(=O)C12CCC(=O)CC2", "TGI": "> 100"}
{"tested_on": "LOX IMVI melanoma", "assay": "inhibition of tumour cell growth, NCI panel, 48 h", "units": {"TGI": "µM"}}
{"smiles": "COc1ccc2c(c1)CCc1c-2[nH]c2ccc(OC)cc12", "TGI": "> 100"}
{"smiles": "C/C(=N\\Nc1cc(CN2CCCC2)c(-c2ccc(Cl)cc2)nn1)C(=O)O", "TGI": "> 100"}
{"smiles": "O=C(O)c1ccc(NNc2cc(=O)[nH]c(=O)[nH]2)cc1", "TGI": "> 100"}
{"smiles": "Cc1cccc(/C=N/NC(=S)NCCc2ccccn2)n1", "TGI": "> 100"}
{"smiles": "CC(=O)c1csc2c1C(=O)c1scc(C(C)=O)c1C2=O", "TGI": 2.9}
{"smiles": "COc1cccc(CCn2c(N)c(-c3ccccc3)c3ccc([N+](=O)[O-])cc3c2=O)c1", "TGI": 6.53}
{"smiles": "CC1(C)c2ccccc2C(=O)C12CCC(=O)CC2", "TGI": "> 100"}
{"tested_on": "M14 melanoma", "assay": "inhibition of tumour cell growth, NCI panel, 48 h", "units": {"TGI": "µM"}}
{"smiles": "COc1ccc2c(c1)CCc1c-2[nH]c2ccc(OC)cc12", "TGI": "> 100"}
{"smiles": "C/C(=N\\Nc1cc(CN2CCCC2)c(-c2ccc(Cl)cc2)nn1)C(=O)O", "TGI": "> 100"}
{"smiles": "O=C(O)c1ccc(NNc2cc(=O)[nH]c(=O)[nH]2)cc1", "TGI": "> 100"}
{"smiles": "Cc1cccc(/C=N/NC(=S)NCCc2ccccn2)n1", "TGI": 33.6}
{"smiles": "CC(=O)c1csc2c1C(=O)c1scc(C(C)=O)c1C2=O", "TGI": 3.1}
{"smiles": "COc1cccc(CCn2c(N)c(-c3ccccc3)c3ccc([N+](=O)[O-])cc3c2=O)c1", "TGI": 24.3}
{"smiles": "CC1(C)c2ccccc2C(=O)C12CCC(=O)CC2", "TGI": "> 100"}
{"tested_on": "MALME-3M melanoma", "assay": "inhibition of tumour cell growth, NCI panel, 48 h", "units": {"TGI": "µM"}}
{"smiles": "COc1ccc2c(c1)CCc1c-2[nH]c2ccc(OC)cc12", "TGI": "> 100"}
{"smiles": "C/C(=N\\Nc1cc(CN2CCCC2)c(-c2ccc(Cl)cc2)nn1)C(=O)O", "TGI": "> 100"}
{"smiles": "O=C(O)c1ccc(NNc2cc(=O)[nH]c(=O)[nH]2)cc1", "TGI": "> 100"}
{"smiles": "Cc1cccc(/C=N/NC(=S)NCCc2ccccn2)n1", "TGI": "> 100"}
{"smiles": "CC(=O)c1csc2c1C(=O)c1scc(C(C)=O)c1C2=O", "TGI": 2.95}
{"smiles": "COc1cccc(CCn2c(N)c(-c3ccccc3)c3ccc([N+](=O)[O-])cc3c2=O)c1", "TGI": 33.6}
{"smiles": "CC1(C)c2ccccc2C(=O)C12CCC(=O)CC2", "TGI": "> 100"}
{"tested_on": "MCF7 breast", "assay": "inhibition of tumour cell growth, NCI panel, 48 h", "units": {"TGI": "µM"}}
{"smiles": "COc1ccc2c(c1)CCc1c-2[nH]c2ccc(OC)cc12", "TGI": "> 100"}
{"smiles": "C/C(=N\\Nc1cc(CN2CCCC2)c(-c2ccc(Cl)cc2)nn1)C(=O)O", "TGI": "> 100"}
{"smiles": "O=C(O)c1ccc(NNc2cc(=O)[nH]c(=O)[nH]2)cc1", "TGI": "> 100"}
{"smiles": "Cc1cccc(/C=N/NC(=S)NCCc2ccccn2)n1", "TGI": "> 100"}
{"smiles": "CC(=O)c1csc2c1C(=O)c1scc(C(C)=O)c1C2=O", "TGI": 3.31}
{"smiles": "COc1cccc(CCn2c(N)c(-c3ccccc3)c3ccc([N+](=O)[O-])cc3c2=O)c1", "TGI": 12.7}
{"smiles": "CC1(C)c2ccccc2C(=O)C12CCC(=O)CC2", "TGI": "> 100"}
{"tested_on": "MDA-MB-231 breast", "assay": "inhibition of tumour cell growth, NCI panel, 48 h", "units": {"TGI": "µM"}}
{"smiles": "COc1ccc2c(c1)CCc1c-2[nH]c2ccc(OC)cc12", "TGI": "> 100"}
{"smiles": "C/C(=N\\Nc1cc(CN2CCCC2)c(-c2ccc(Cl)cc2)nn1)C(=O)O", "TGI": "> 100"}
{"smiles": "O=C(O)c1ccc(NNc2cc(=O)[nH]c(=O)[nH]2)cc1", "TGI": "> 100"}
{"smiles": "Cc1cccc(/C=N/NC(=S)NCCc2ccccn2)n1", "TGI": "> 100"}
{"smiles": "CC(=O)c1csc2c1C(=O)c1scc(C(C)=O)c1C2=O", "TGI": 1.43}
{"smiles": "COc1cccc(CCn2c(N)c(-c3ccccc3)c3ccc([N+](=O)[O-])cc3c2=O)c1", "TGI": 29.6}
{"smiles": "CC1(C)c2ccccc2C(=O)C12CCC(=O)CC2", "TGI": "> 100"}
{"tested_on": "MDA-MB-435", "assay": "inhibition of tumour cell growth, NCI panel, 48 h", "units": {"TGI": "µM"}}
{"smiles": "COc1ccc2c(c1)CCc1c-2[nH]c2ccc(OC)cc12", "TGI": "> 100"}
{"smiles": "C/C(=N\\Nc1cc(CN2CCCC2)c(-c2ccc(Cl)cc2)nn1)C(=O)O", "TGI": "> 100"}
{"smiles": "Cc1cccc(/C=N/NC(=S)NCCc2ccccn2)n1", "TGI": "> 73.7"}
{"smiles": "CC(=O)c1csc2c1C(=O)c1scc(C(C)=O)c1C2=O", "TGI": 0.336}
{"smiles": "COc1cccc(CCn2c(N)c(-c3ccccc3)c3ccc([N+](=O)[O-])cc3c2=O)c1", "TGI": "> 67.1"}
{"tested_on": "MDA-N", "assay": "inhibition of tumour cell growth, NCI panel, 48 h", "units": {"TGI": "µM"}}
{"smiles": "COc1ccc2c(c1)CCc1c-2[nH]c2ccc(OC)cc12", "TGI": "> 100"}
{"smiles": "C/C(=N\\Nc1cc(CN2CCCC2)c(-c2ccc(Cl)cc2)nn1)C(=O)O", "TGI": "> 100"}
{"smiles": "O=C(O)c1ccc(NNc2cc(=O)[nH]c(=O)[nH]2)cc1", "TGI": "> 100"}
{"smiles": "Cc1cccc(/C=N/NC(=S)NCCc2ccccn2)n1", "TGI": "> 100"}
{"smiles": "CC(=O)c1csc2c1C(=O)c1scc(C(C)=O)c1C2=O", "TGI": 0.319}
{"smiles": "COc1cccc(CCn2c(N)c(-c3ccccc3)c3ccc([N+](=O)[O-])cc3c2=O)c1", "TGI": 43.7}
{"smiles": "CC1(C)c2ccccc2C(=O)C12CCC(=O)CC2", "TGI": "> 100"}
{"tested_on": "MOLT-4 leukemia", "assay": "inhibition of tumour cell growth, NCI panel, 48 h", "units": {"TGI": "µM"}}
{"smiles": "COc1ccc2c(c1)CCc1c-2[nH]c2ccc(OC)cc12", "TGI": "> 100"}
{"smiles": "C/C(=N\\Nc1cc(CN2CCCC2)c(-c2ccc(Cl)cc2)nn1)C(=O)O", "TGI": "> 100"}
{"smiles": "O=C(O)c1ccc(NNc2cc(=O)[nH]c(=O)[nH]2)cc1", "TGI": "> 100"}
{"smiles": "Cc1cccc(/C=N/NC(=S)NCCc2ccccn2)n1", "TGI": "> 100"}
{"smiles": "CC(=O)c1csc2c1C(=O)c1scc(C(C)=O)c1C2=O", "TGI": 1.13}
{"smiles": "COc1cccc(CCn2c(N)c(-c3ccccc3)c3ccc([N+](=O)[O-])cc3c2=O)c1", "TGI": 49.5}
{"smiles": "CC1(C)c2ccccc2C(=O)C12CCC(=O)CC2", "TGI": "> 100"}
{"tested_on": "NCI-H226 lung", "assay": "inhibition of tumour cell growth, NCI panel, 48 h", "units": {"TGI": "µM"}}
{"smiles": "COc1ccc2c(c1)CCc1c-2[nH]c2ccc(OC)cc12", "TGI": "> 100"}
{"smiles": "C/C(=N\\Nc1cc(CN2CCCC2)c(-c2ccc(Cl)cc2)nn1)C(=O)O", "TGI": "> 100"}
{"smiles": "O=C(O)c1ccc(NNc2cc(=O)[nH]c(=O)[nH]2)cc1", "TGI": "> 100"}
